ChEMBL document CHEMBL1122254, “Sulfonyliminoimidazolidines. A new class of oral hypoglycemic agents. 1. 1-[[p-[2-(acylamino)ethyl]phenyl]sulfonyl]-2-iminoimidazolidines” (1983)

Key:
Type in all cases: functional
Rattus norvegicus [1] = assay: Hypoglycemic activity by lowering blood glucose in normal rats by 50% after oral administration.
Rattus norvegicus [2] = assay: Hypoglycemic activity by lowering blood glucose in normal rats by 20% after oral administration.
Rattus norvegicus [3] = assay: Hypoglycemic activity by lowering blood glucose in streptozotocin-diabetic rats by 20% after oral administration.
Rattus norvegicus [4] = assay: Compound evaluated for hypoglycemic activity by lowering blood glucose in streptozotocin-diabetic rats by 20% after oral administration
Rattus norvegicus [5] = assay: Compound evaluated for hypoglycemic activity by lowering blood glucose in normal rats by 50% after oral administration (highest dose tested)
Rattus norvegicus [6] = assay: Compound evaluated for hypoglycemic activity by lowering blood glucose in streptozotocin-diabetic rats by 20% after oral administration (highest dose tested)
Rattus norvegicus [7] = assay: Compound evaluated for hypoglycemic activity by lowering blood glucose in streptozotocin-diabetic rats by 20% after oral administration; Inactive(less than 10% blood sugar decrease)

Row | Structure (SMILES) | ED50 (Rattus norvegicus [1]) [µmol/kg] | ED20 (Rattus norvegicus [2]) [mmol/kg] | also measured
1 | CCOCC(=O)NCCc1ccc(S(=O)(=O)N2CCN(C3CCCCC3)C2=N)cc1 | 150 | 0.044 | –
2 | CCC/C=C/C(=O)NCCc1ccc(S(=O)(=O)N2CCN(C3CCCCC3)C2=N)cc1 | 22 | 0.009 | ED20 (Rattus norvegicus [3]): 0.81 mmol/kg
3 | CCCCN(C)C(=O)NCCc1ccc(S(=O)(=O)N2CCN(C3CCCCC3)C2=N)cc1 | 320 | 0.054 | –
4 | COc1cccc(C(=O)NCCc2ccc(S(=O)(=O)N3CCN(C4CCCCC4)C3=N)cc2)c1 | 380 | 0.062 | ED20 (Rattus norvegicus [4]): 0.31 mmol/kg
5 | CC(C)/C=C/C(=O)NCCc1ccc(S(=O)(=O)N2CCN(C3CCCCC3)C2=N)cc1 | 34 | 0.0096 | –
6 | CC[S+]([O-])CC(=O)NCCc1ccc(S(=O)(=O)N2CCN(C3CCCCC3)C2=N)cc1 (stereo not drawn) | 240 | 0.074 | ED20 (Rattus norvegicus [3]): 0.85 mmol/kg
7 | Cc1ccccc1C(=O)NCCc1ccc(S(=O)(=O)N2CCN(C3CCCCC3)C2=N)cc1 | – | 0.022 | ED50 (Rattus norvegicus [5]): > 850 µmol/kg
8 | COc1ccc(Cl)cc1C(=O)NCCc1ccc(S(=O)(=O)N2CCN(C3CCCCC3)C2=N)cc1 | – | 0.12 | ED50 (Rattus norvegicus [5]): > 770 µmol/kg
9 | CC(Nc1ccccc1)C(=O)NCCc1ccc(S(=O)(=O)N2CCN(C3CCCCC3)C2=N)cc1 (stereo not drawn) | 200 | 0.06 | ED20 (Rattus norvegicus [3]): 0.4 mmol/kg
10 | C/C=C\C(=O)NCCc1ccc(S(=O)(=O)N2CCN(C3CCCCC3)C2=N)cc1 | 38 | 0.0038 | –
11 | N=C1N(C2CCCCC2)CCN1S(=O)(=O)c1ccc(CCNC(=O)c2ccco2)cc1 | 160 | 0.013 | ED20 (Rattus norvegicus [3]): 0.22 mmol/kg
12 | CC(=O)NCCc1ccc(S(=O)(=O)N2CCN(C3CCCCC3)C2=N)cc1 | 240 | 0.038 | –
13 | CC/N=C(\S)NCCc1ccc(S(=O)(=O)N2CCN(C3CCCCC3)C2=N)cc1 | 140 | 0.016 | –
14 | C/N=C(\S)NCCc1ccc(S(=O)(=O)N2CCN(C3CCCCC3)C2=N)cc1 | 240 | 0.031 | –
15 | N=C1N(C2CCCCC2)CCN1S(=O)(=O)c1ccc(CCNC(=O)CNc2ccccc2)cc1 | 320 | 0.064 | ED20 (Rattus norvegicus [3]): 0.4 mmol/kg
16 | CSc1ccccc1C(=O)NCCc1ccc(S(=O)(=O)N2CCN(C3CCCCC3)C2=N)cc1 | 620 | 0.064 | –
17 | CCCCNC(=O)NCCc1ccc(S(=O)(=O)N2CCN(C3CCCCC3)C2=N)cc1 | 330 | 0.067 | –
18 | C[S+]([O-])CCC(=O)NCCc1ccc(S(=O)(=O)N2CCN(C3CCCCC3)C2=N)cc1 (stereo not drawn) | 200 | 0.056 | ED20 (Rattus norvegicus [3]): 0.86 mmol/kg
19 | C/C=C/C(=O)NCCc1ccc(S(=O)(=O)N2CCN(C3CCCCC3)C2=N)cc1 | 9.6 | 0.0028 | ED20 (Rattus norvegicus [3]): 0.18 mmol/kg
20 | N=C1N(C2CCCCC2)CCN1S(=O)(=O)c1ccc(CCNC(=O)c2cccs2)cc1 | 170 | 0.022 | –
21 | N=C1N(C2CCCCC2)CCN1S(=O)(=O)c1ccc(CCNC(=O)c2ccc(Cl)c(Cl)c2)cc1 | – | 0.37 | ED50 (Rattus norvegicus [5]): > 760 µmol/kg
22 | CC1(C(=O)NCCc2ccc(S(=O)(=O)N3CCN(C4CCCCC4)C3=N)cc2)CC=CCC1 (stereo not drawn) | 170 | 0.053 | –
23 | C=CCCC(=O)NCCc1ccc(S(=O)(=O)N2CCN(C3CCCCC3)C2=N)cc1 | 15 | 0.0069 | ED20 (Rattus norvegicus [3]): 0.36 mmol/kg
24 | N=C1N(C2CCCCC2)CCN1S(=O)(=O)c1ccc(CCNC=O)cc1 | 260 | 0.053 | –

Row | Structure (SMILES) | ED50 (Rattus norvegicus [1]) [µmol/kg] | ED20 (Rattus norvegicus [2]) [mmol/kg] | also measured
25 | N=C1N(C2CCCCC2)CCN1S(=O)(=O)c1ccc(CCNC(=O)CN)cc1 | – | 0.39 | ED20 (Rattus norvegicus [3]): 0.62 mmol/kg
26 | Cc1cnc(C(=O)NCCc2ccc(S(=O)(=O)N3CCN(C4CCCCC4)C3=N)cc2)cn1 | 100 | 0.01 | ED20 (Rattus norvegicus [6]): > 0.61 mmol/kg
27 | N=C1N(C2CCCCC2)CCN1S(=O)(=O)c1ccc(CCNC(=O)C(N)c2ccccc2)cc1 (stereo not drawn) | 76 | 0.029 | ED20 (Rattus norvegicus [7]): > 0.18 mmol/kg
28 | COc1ccc(C(=O)NCCc2ccc(S(=O)(=O)N3CCN(C4CCCCC4)C3=N)cc2)cc1OC | 780 | 0.066 | –
29 | CC(N)C(=O)NCCc1ccc(S(=O)(=O)N2CCN(C3CCCCC3)C2=N)cc1 (stereo not drawn) | 160 | 0.059 | ED20 (Rattus norvegicus [3]): 0.46 mmol/kg
30 | CSCC(=O)NCCc1ccc(S(=O)(=O)N2CCN(C3CCCCC3)C2=N)cc1 | 190 | 0.081 | –
31 | N=C1N(C2CCCCC2)CCN1S(=O)(=O)c1ccc(CCNC(=O)c2cnccn2)cc1 | 480 | 0.12 | ED20 (Rattus norvegicus [6]): > 0.22 mmol/kg
32 | N=C1N(C2CCCCC2)CCN1S(=O)(=O)c1ccc(CCNC(=O)c2cccnc2)cc1 | 160 | 0.034 | ED20 (Rattus norvegicus [6]): > 0.22 mmol/kg
33 | CCCSCC(=O)NCCc1ccc(S(=O)(=O)N2CCN(C3CCCCC3)C2=N)cc1 | 550 | 0.1 | –
34 | C=C(C(=O)NCCc1ccc(S(=O)(=O)N2CCN(C3CCCCC3)C2=N)cc1)c1ccccc1 | 48 | 0.014 | ED20 (Rattus norvegicus [3]): 0.96 mmol/kg
35 | N=C1N(C2CCCCC2)CCN1S(=O)(=O)c1ccc(CCNC(=O)CCN)cc1 | 370 | 0.065 | ED20 (Rattus norvegicus [3]): 0.76 mmol/kg
36 | Cc1cc(C(=O)NCCc2ccc(S(=O)(=O)N3CCN(C4CCCCC4)C3=N)cc2)no1 | 130 | 0.022 | ED20 (Rattus norvegicus [3]): 0.14 mmol/kg
37 | COc1ccc(C(=O)NCCc2ccc(S(=O)(=O)N3CCN(C4CCCCC4)C3=N)cc2)cc1 | 830 | 0.064 | –
38 | CN(C)CC(=O)NCCc1ccc(S(=O)(=O)N2CCN(C3CCCCC3)C2=N)cc1 | 180 | 0.057 | –
39 | CCC(CC)C(=O)NCCc1ccc(S(=O)(=O)N2CCN(C3CCCCC3)C2=N)cc1 | – | 0.098 | ED50 (Rattus norvegicus [5]): > 890 µmol/kg
40 | CCOC(=O)NCCc1ccc(S(=O)(=O)N2CCN(C3CCCCC3)C2=N)cc1 | 170 | 0.035 | –
41 | CCCCCC/N=C(\S)NCCc1ccc(S(=O)(=O)N2CCN(C3CCCCC3)C2=N)cc1 | – | 0.3 | ED50 (Rattus norvegicus [5]): > 610 µmol/kg
42 | COCCC(=O)NCCc1ccc(S(=O)(=O)N2CCN(C3CCCCC3)C2=N)cc1 | 220 | 0.033 | –
43 | CCCOCC(=O)NCCc1ccc(S(=O)(=O)N2CCN(C3CCCCC3)C2=N)cc1 | 350 | 0.1 | –
44 | CCCCOC(=O)NCCc1ccc(S(=O)(=O)N2CCN(C3CCCCC3)C2=N)cc1 | 890 | 0.079 | ED20 (Rattus norvegicus [3]): 0.89 mmol/kg
45 | C=CC(=O)NCCc1ccc(S(=O)(=O)N2CCN(C3CCCCC3)C2=N)cc1 | 210 | 0.042 | –
46 | CC(C(=O)NCCc1ccc(S(=O)(=O)N2CCN(C3CCCCC3)C2=N)cc1)N(C)C (stereo not drawn) | 62 | 0.024 | –
47 | N=C1N(C2CCCCC2)CCN1S(=O)(=O)c1ccc(CCNC(=O)c2cncnc2)cc1 | – | 0.2 | ED50 (Rattus norvegicus [5]): > 590 µmol/kg; ED20 (Rattus norvegicus [6]): > 0.59 mmol/kg
48 | CSCCC(=O)NCCc1ccc(S(=O)(=O)N2CCN(C3CCCCC3)C2=N)cc1 | 200 | 0.053 | –

Row | Structure (SMILES) | ED50 (Rattus norvegicus [1]) [µmol/kg] | ED20 (Rattus norvegicus [2]) [mmol/kg] | also measured
49 | N=C1N(C2CCCCC2)CCN1S(=O)(=O)c1ccc(CCNC(=O)/C=C/c2ccccc2)cc1 | – | 0.11 | ED50 (Rattus norvegicus [5]): > 630 µmol/kg
50 | CCCC(=O)NCCc1ccc(S(=O)(=O)N2CCN(C3CCCCC3)C2=N)cc1 | 83 | 0.024 | ED20 (Rattus norvegicus [4]): 0.52 mmol/kg
51 | N=C1N(C2CCCCC2)CCN1S(=O)(=O)c1ccc(CCNC(=O)CCNc2ccccc2)cc1 | – | 0.24 | ED20 (Rattus norvegicus [3]): 0.8 mmol/kg
52 | C/C=C(/C)C(=O)NCCc1ccc(S(=O)(=O)N2CCN(C3CCCCC3)C2=N)cc1 | 17 | 0.0035 | –
53 | N=C1N(C2CCCCC2)CCN1S(=O)(=O)c1ccc(CCNC(=O)C2CC2)cc1 | 150 | 0.034 | –
54 | N=C1N(C2CCCCC2)CCN1S(=O)(=O)c1ccc(CCNC(=S)NC2CCCCC2)cc1 | – | 0.16 | ED50 (Rattus norvegicus [5]): > 820 µmol/kg
55 | CCS(=O)(=O)CC(=O)NCCc1ccc(S(=O)(=O)N2CCN(C3CCCCC3)C2=N)cc1 | 530 | 0.11 | ED20 (Rattus norvegicus [4]): 0.83 mmol/kg
56 | N=C1N(C2CCCCC2)CCN1S(=O)(=O)c1ccc(CCNC(=O)C2CC=CCC2)cc1 (stereo not drawn) | 15 | 0.0044 | ED20 (Rattus norvegicus [3]): 0.39 mmol/kg
57 | CCCCC(=O)NCCc1ccc(S(=O)(=O)N2CCN(C3CCCCC3)C2=N)cc1 | 120 | 0.035 | –
58 | COc1ccc(Cl)cc1C(=O)NCCc1ccc(S(=O)(=O)NC(=O)NC2CCCCC2)cc1 [GLYBURIDE] | 20 | 0.004 | ED20 (Rattus norvegicus [7]): > 0.5 mmol/kg
59 | N=C1N(C2CCCCC2)CCN1S(=O)(=O)c1ccc(CCNC(=O)c2ccccc2Cl)cc1 | 230 | 0.023 | –
60 | CCSCC(=O)NCCc1ccc(S(=O)(=O)N2CCN(C3CCCCC3)C2=N)cc1 | 200 | 0.055 | ED20 (Rattus norvegicus [3]): 0.57 mmol/kg
61 | N=C1N(C2CCCCC2)CCN1S(=O)(=O)c1ccc(CCNC(=O)Nc2ccccc2)cc1 | – | 0.85 | –
62 | N=C1N(C2CCCCC2)CCN1S(=O)(=O)c1ccc(CCNC(=O)Oc2ccccc2)cc1 | > 850 | 0.042 | –
63 | CCCC/N=C(\S)NCCc1ccc(S(=O)(=O)N2CCN(C3CCCCC3)C2=N)cc1 | 210 | 0.015 | –
64 | C=C(C)C(=O)NCCc1ccc(S(=O)(=O)N2CCN(C3CCCCC3)C2=N)cc1 | 220 | 0.024 | –
65 | COc1ccccc1C(=O)NCCc1ccc(S(=O)(=O)N2CCN(C3CCCCC3)C2=N)cc1 | – | 0.093 | ED50 (Rattus norvegicus [5]): > 830 µmol/kg
66 | N=C1N(C2CCCCC2)CCN1S(=O)(=O)c1ccc(CCNC(=S)Nc2ccccc2)cc1 | 630 | 0.063 | –
67 | N=C1N(C2CCCCC2)CCN1S(=O)(=O)c1ccc(CCNC(=O)CCC2CCC2)cc1 | 200 | 0.052 | –
68 | CC1=CCC(C(=O)NCCc2ccc(S(=O)(=O)N3CCN(C4CCCCC4)C3=N)cc2)CC1 (stereo not drawn) | 910 | 0.11 | –
69 | N=C1N(C2CCCCC2)CCN1S(=O)(=O)c1ccc(CCNC(=S)NC2CCCC2)cc1 | 210 | 0.05 | –
70 | CC(C)CC(=O)NCCc1ccc(S(=O)(=O)N2CCN(C3CCCCC3)C2=N)cc1 | 150 | 0.046 | –
